Data taken from article PMC7930822, “Phase I Trial to Evaluate the Tolerance, Pharmacokinetics and Efficacy of the Broad-Spectrum ErbB Family Inhibitor Larotinib Mesylate in Patients With Advanced Solid Tumors” (Frontiers in Pharmacology, 2021).
Counter-ions that a name gives are not always drawn. Like-named read-outs stand apart in the source and are kept apart here.

Experiments:
[1] = system: EGFR with the L858R mutation; set-up: method as in data not published; settings: ref data not published; cited from earlier work
[2] = system: wild-type EGFR; experiment: in vitro kinase inhibition, wild-type EGFR; assay type: biochemical
Protocol: Larotinib mesylate (Figure 1) is a novel, potent broad-spectrum TKI with EGFR as the main target with a 50% inhibitory concentration (IC50) of 0.6 nM (data not published). […] We hypothesized that the characteristics of larotinib mesylate that facilitate simultaneous inhibition of multiple kinases may improve the tumor inhibiting effect of the drug and decrease the emergence of resistance to larotinib mesylate in solid tumor cells.

[3] = urine and fecal excretion recovery, cycle 0; assay type: in vivo; settings: human, oral
Protocol: Blood samples (4 ml) for pharmacokinetic analyses were collected in tubes containing K2EDTA anticoagulant. Blood samples were centrifuged at 3,000 rpm for 10 min at 4°C and stored at –80°C until liquid chromatography-mass spectrophotometry (LC-MS/MS) analysis. Urine and fecal samples were collected only when patients were given the150-mg and 220-mg dose levels at sampling time intervals of 0–4, 4–8, 8–12, 12–24, 24–48, 48–72, 72–96 and 96–120 h in cycle 0.
Linear mixed effects model was used to explore the dose exposure relationships. Dose proportionality was concluded if the 95% confidence interval (CI) of the linear regression slope was completely contained within the decision interval (1 + ln (0.8)/ln (8)∼1 + ln (1.25)/ln (8)). For urine and fecal data, the accumulative excretion rates of larotinib and M5 were calculated.
Bioanalysis was performed at Frontage Company (Shanghai, China). Validated high-performance LC-MS/MS method was used to quantify the concentrations of larotinib and M5 in plasma, urine and feces samples. Protein precipitation was employed for plasma, urine and feces processing. Plasma larotinib and M5 concentrations were determined using appropriate calibration curves obtained from standards in the range of 0.5–1,000 ng/ml. The interassay precision of the analysis method were 4.2–5.4% for larotinib and 3.9–4.3% for M5. The interassay accuracy of the analysis method were 100.4–103.4% for larotinib and 102.2–102.9% for M5, respectively.

Structure (SMILES): COc1cc2ncnc(Nc3ccc(F)c(Cl)c3)c2cc1OCCCN1C[C@@H]2OCCO[C@@H]2C1 [larotinib mesylate]
- IC50 [1]: 0.563 nM
- fold greater inhibitory activity than gefitinib ([2]; ref Baselga and Averbuch, 2000): 37 fold
- fold greater inhibitory activity than erlotinib ([2]; ref Moyer et al., 1997): 3 fold
- dose excreted ([3]; feces, 150-mg group, read-out: 0–120 h excretion recovery percentage in feces): 6.01%
- dose excreted ([3]; feces, 220-mg group, read-out: 0–120 h excretion recovery percentage in feces): 7.89%
- dose excreted ([3]; 150-mg group, urine plus feces, read-out: 0–120 h excretion recovery percentage, total): 7.41%
- dose excreted ([3]; 220-mg group, urine plus feces, read-out: 0–120 h excretion recovery percentage, total): 9.25%
- dose excreted ([3]; urine, 150-mg group, read-out: 0–120 h excretion recovery percentage in urine): 1.4%
- dose excreted ([3]; urine, 220-mg group, read-out: 0–120 h excretion recovery percentage in urine): 1.36%
